Usually IC50 stands for the point on the concentration scale where inhibition reaches its midpoint. Higher therefore signals weaker potency in that assay.

IC50 data for 46 molecules are collected here from patent US20060264460A1 (Wyeth, priority 2005, published 2006).

T1 sequence (P41279 30-398): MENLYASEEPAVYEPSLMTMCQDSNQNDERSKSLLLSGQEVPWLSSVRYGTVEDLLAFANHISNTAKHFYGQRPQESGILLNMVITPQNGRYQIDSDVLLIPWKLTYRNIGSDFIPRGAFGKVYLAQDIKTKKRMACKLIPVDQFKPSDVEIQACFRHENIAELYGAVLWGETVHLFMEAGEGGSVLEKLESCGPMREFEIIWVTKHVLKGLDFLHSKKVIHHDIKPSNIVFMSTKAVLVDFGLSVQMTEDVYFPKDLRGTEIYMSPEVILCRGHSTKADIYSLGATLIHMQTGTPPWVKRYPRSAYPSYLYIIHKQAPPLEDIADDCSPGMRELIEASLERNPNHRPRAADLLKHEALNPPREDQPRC

One assay concerns the target T1, human Cot/Tpl2 kinase (Homo sapiens, UniProt P41279).
T1 construct: human Cot/Tpl2 kinase construct encoding residues 30-398; 6His (N); made in house; host or cells: Sf9 insect cells, baculovirus system (BD Biosciences)
As to the kind of experiment: Tpl2/Cot kinase assay: GST-MEK1 phosphorylation detected by ELISA (DELFIA Eu). Type of assay: biochemical. The conditions noted are these: 0.4 nM Tpl2, 35 nM GST-MEK1, 50 uM ATP, 1 h at 30° C. Summed up: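 His-tagged human Tpl2 from Sf9 cells, Ni-affinity and size-exclusion purified (monomer). 0.4 nM Tpl2 with 35 nM GST-MEK1, 50 uM ATP, MOPS pH 7.2, 1% DMSO, 1 h at 30° C; EDTA stop. MEK1 Ser217/221 phosphorylation detected by anti-phospho-MEK1 and Eu-labelled secondary ELISA; IC50 fitted.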
In turn, `N#Cc1ccccc1CNc1ccc2ncc(C#N)c(Nc3ccc(F)c(Cl)c3)c2c1` [Example 21, 4-(3-Chloro-4-fluoro-phenylamino)-6-(2-cyano-benzylamino)-quinoline-3-carbonitrile] had an IC50 of 0.13 µM.
For `Cc1cccc(CNc2cc(C(=O)N(C)C)c3ncc(C#N)c(Nc4ccc(F)c(Cl)c4)c3c2)c1` [Example 92, 4-(3-chloro-4-fluorophenylamino)-3-cyano-N,N-dimethyl-6-(3-methylbenzylamino)quinoline-8-carboxamide], the IC50 is more than 40 µM.
`CN(C)Cc1cc(NCc2cccnc2)cc2c(Nc3cccc(Br)c3)c(C#N)cnc12` [Example 124, 4-(3-bromophenylamino)-8-((dimethylamino)methyl)-6-(pyridin-3-ylmethylamino)quinoline-3-carbonitrile] registered an IC50 of more than 10 µM.
In the case of `N#Cc1cnc2c(F)cc(NCc3cc[n+]([O-])cc3)cc2c1Nc1ccc(F)c(Cl)c1` [Example 270, 4-[(3-Chloro-4-fluorophenyl)amino]-8-fluoro-6-{[(1-oxidopyridin-4-yl)methyl]amino}quinoline-3-carbonitrile], the IC50 was 0.1 µM.
`CN(C)C(=O)c1cc(NCc2nc3ccccc3n2C)cc2c(Nc3ccc(F)c(Cl)c3)c(C#N)cnc12` [Example 83, 4-(3-chloro-4-fluorophenylamino)-3-cyano-N,N-dimethyl-6-((1-methyl-1H-benzo[d]imidazol-2-yl)methylamino)quinoline-8-carboxamide]: half-maximal inhibition (IC50) required 0.063 µM.
Turning to `Cc1ncc(CNc2cc(Br)c3ncc(C#N)c(Nc4ccc(F)c(Cl)c4)c3c2)[nH]1` [Example 105, 8-bromo-4-(3-chloro-4-fluorophenylamino)-6-((2-methyl-1H-imidazol-5-yl)methylamino)quinoline-3-carbonitrile], the IC50 was determined as 0.17 µM.
With `N#Cc1cnc2c(Br)cc(NCc3cn(CCN4CCCC4)nn3)cc2c1Nc1ccc(F)c(Cl)c1` [Example 308, 8-Bromo-4-(3-chloro-4-fluoro-phenylamino)-6-{[1-(2-pyrrolidin-1-yl-ethyl)-1H-[1,2,3]triazol-4-ylmethyl]-amino}-quinoline-3-carbonitrile], it took 0.028 µM to reach half-maximal inhibition (IC50). Compared with the last molecule, the IC50 is about 6.1-fold lower.
On to `N#Cc1ccc(CNc2ccc3ncc(C#N)c(Nc4ccc(F)c(Cl)c4)c3c2)cc1` [Example 19, 4-(3-Chloro-4-fluoro-phenylamino)-6-(4-cyano-benzylamino)-quinoline-3-carbonitrile], for which the IC50 was determined as 0.59 µM. Against the preceding molecule, the IC50 is about 21-fold higher.
In turn, `Cc1nn(C)c(N2CCOCC2)c1CNc1ccc2ncc(C#N)c(Nc3ccc(F)c(Cl)c3)c2c1` [Example 38, 4-(3-Chloro-4-fluoro-phenylamino)-6-[(1,3-dimethyl-5-morpholin-4-yl-1H-pyrazol-4-ylmethyl)-amino]-quinoline-3-carbonitrile] registered an IC50 of 2.6 µM.
`C/C=C/c1cc(NCc2cccnc2)cc2c(Nc3ccc(F)c(Cl)c3)c(C#N)cnc12` [Example 109, (E)-4-(3-chloro-4-fluorophenylamino)-8-(prop-1-enyl)-6-(pyridin-3-ylmethylamino)quinoline-3-carbonitrile] came in with an IC50 of 2.2 µM.
Molecule `COc1cc(NCCN2CCOCC2)cc2c(Nc3ccc(F)c(Cl)c3)c(C#N)cnc12` [Example 29, 4-(3-Chloro-4-fluoro-phenylamino)-8-methoxy-6-(2-morpholin-4-yl-ethylamino)-quinoline-3-carbonitrile] yielded an IC50 of 5.2 µM.
In turn, `N#Cc1cnc2ccc(NCCN3CCOCC3)cc2c1NC1CCCCCC1` [Example 252, 4-(cycloheptylamino)-6-[(2-morpholin-4-ylethyl)amino]quinoline-3-carbonitrile] gave an IC50 of 6.1 µM.
As to `CS(=O)(=O)NCCNc1cc(Cl)c2ncc(C#N)c(Nc3ccc(F)c(Cl)c3)c2c1` [Example 326, N-[2-({8-chloro-4-[(3-chloro-4-fluorophenyl)amino]-3-cyanoquinolin-6-yl}amino)ethyl]methanesulfonamide], the midpoint of inhibition, the IC50, lay at 0.07 µM.
Same read-out and setting: under `N#Cc1cnc2c(Cl)cc(NCc3nnn[nH]3)cc2c1Nc1ccc(F)c(Cl)c1` [Example 279, 8-Chloro-4-[(3-chloro-4-fluorophenyl)amino]-6-[(1 H-tetrazol-5-ylmethyl)amino]quinoline-3-carbonitrile] stands 0.0026 µM; under “1-[(3-chloro-4-fluorophenyl)amino]-5-[(1E)-3-hydroxyprop-1-en-1-yl]-7-[(1H-imidazol-5-ylmethyl)amino]-2-naphthonitrile [Example 313]”, 0.23 µM.
Take `N#Cc1cnc2ccc(NCc3ccc([N+](=O)[O-])cc3)cc2c1Nc1ccc(F)c(Cl)c1` [Example 17, 4-(3-Chloro-4-fluoro-phenylamino)-6-(4-nitro-benzylamino)-quinoline-3-carbonitrile]: the IC50 was found to be 0.19 µM.
Molecule `N#Cc1cnc2ccc(NCc3ccc(S(N)(=O)=O)cc3)cc2c1NC1CCCCCC1` [Example 250, 4-({[3-cyano-4-(cycloheptylamino)quinolin-6-yl]amino}methyl)benzenesulfonamide] yielded an IC50 of 6.8 µM.
With `CC(Nc1ccc2ncc(C#N)c(Nc3ccc(F)c(Cl)c3)c2c1)c1cnc[nH]1` (stereo not shown) [Example 179, 6-(1-(1H-imidazol-5-yl)ethylamino)-4-(3-chloro-4-fluorophenylamino)quinoline-3-carbonitrile], half-maximal inhibition (IC50) required 3.9 µM.
Same read-out and setting: as for `CS(=O)(=O)c1cccc(CNc2ccc3ncc(C#N)c(Nc4ccc(F)c(Cl)c4)c3c2)c1` [Example 167, 6-(3-(methylsulfonyl)benzylamino)-4-(3-chloro-4-fluorophenylamino)quinoline-3-carbonitrile], the figure is 0.028 µM.

The assay is the same for the next values; noted with them: Table 2; Tpl2/Cot kinase, GST-MEK1 substrate, 50 uM ATP.
`CCN(C[C@@H]1CCCN1)c1cc(Cl)c2ncc(C#N)c(Nc3ccc(F)c(Cl)c3)c2c1` [Example 640]: the IC50 is more than 3 µM.
On the same count and under the same terms, as for `CNCCn1cc(CNc2cc(Br)c3ncc(C#N)c(Nc4ccc(F)c(Cl)c4)c3c2)nn1` [Example 512], the figure is 0.038 µM; as for `N#Cc1cccc(CNc2ccc3ncc(C#N)c(NC4CCCC4)c3c2)c1` [Example 420], 2.2 µM.
Molecule `N#Cc1cnc2c(Cl)cc(NCC(=O)NCCN3CCOCC3)cc2c1Nc1ccc(F)c(Cl)c1` [Example 608] displayed a half-maximal inhibitory concentration (IC50) of 0.53 µM.
For `N#Cc1ccccc1CNc1ccc2ncc(C#N)c(NC3CCCC3)c2c1` [Example 416], the IC50 was 1.7 µM.
The same measure, in the same setting: under `Cn1nc(C(C)(C)C)cc1Nc1c(C#N)cnc2ccc(N)cc12` [Example 425] stands more than 40 µM; under `N#Cc1cnc2c(Br)cc(NCCN3CCOCC3)cc2c1Nc1cccc(Cl)c1` [Example 372], 0.42 µM.
The molecule `CN1CCCC1CCNC(=O)CNc1cc(Cl)c2ncc(C#N)c(Nc3ccc(F)c(Cl)c3)c2c1` (stereo not shown) [Example 612] had an IC50 of more than 3 µM.
For `CNC(=O)CNc1cc(Cl)c2ncc(C#N)c(Nc3ccc(F)c(Cl)c3)c2c1` [Example 473], the IC50 was 0.47 µM.
In turn, `COc1cc(NCc2cccnc2)cc2c(Nc3ccc(F)c(Cl)c3)c(C#N)cnc12` [Example 380] yielded an IC50 of 1.1 µM.
The molecule `Cn1nnc(CNc2cc(Cl)c3ncc(C#N)c(Nc4ccc(F)c(Cl)c4)c3c2)n1` [Example 466] had an IC50 of 0.23 µM.
Take `N#Cc1cnc2c(Br)cc(NCc3cn(CCCN4CCCCC4)nn3)cc2c1Nc1ccc(F)c(Cl)c1` [Example 538]: it took 0.0034 µM to reach half-maximal inhibition (IC50).

Still in this assay, the particulars now being: Tpl2/Cot kinase, GST-MEK1 substrate, 50 uM ATP.
`CN(CCn1cc(CNc2cc(Cl)c3ncc(C#N)c(Nc4ccc(F)c(Cl)c4)c3c2)nn1)C(=O)OC(C)(C)C` [Example 676] returned an IC50 of 0.048 µM.
Take `N#Cc1cnc2c(Cl)cc(NCC3CCN(C(=O)c4cccnc4)CC3)cc2c1Nc1ccc(F)c(Cl)c1` [Example 850]: 0.13 µM corresponded to half-maximal inhibition (IC50).
In turn, `CN1CCCC1CCn1cc(CN(Cc2cn(CCC3CCCN3C)nn2)c2cc(Br)c3ncc(C#N)c(Nc4ccc(F)c(Cl)c4)c3c2)nn1` (stereo not shown) [Example 823] had an IC50 of 0.86 µM.
The molecule `N#Cc1cnc2c(Cl)cc(NCC(=O)Nc3ccncc3)cc2c1Nc1ccc(F)c(Cl)c1` [Example 774] registered a half-maximal inhibitory concentration (IC50) of 2.4 µM.
Regarding `CC(=O)N1CCCC(CNc2cc(Cl)c3ncc(C#N)c(Nc4ccc(F)c(Cl)c4)c3c2)C1` (stereo not shown) [Example 874], the IC50 came out at 0.61 µM.
On the same count and under the same terms, as for `N#Cc1cnc2c(Cl)cc(NCc3cn(C4CCOCC4)nn3)cc2c1Nc1ccc(F)c(Cl)c1` [Example 734], the figure is 0.014 µM; as for `N#Cc1cnc2c(Cl)cc(NCc3cn(CCCNC(=O)C4CC4)nn3)cc2c1Nc1ccc(F)c(Cl)c1` [Example 912], 0.0019 µM; as for `CN1CCN(CCCn2cc(CNc3cc(Br)c4ncc(C#N)c(Nc5ccc(F)c(Cl)c5)c4c3)nn2)CC1` [Example 795], 0.029 µM.

Staying with this assay, now noted: Tpl2/Cot kinase, GST-MEK1 substrate, 50 uM ATP, 1 h at 30° C.; Table 2.
`N#Cc1cnc2c(Cl)cc(NCc3cn(CCc4cccnc4)nn3)cc2c1Nc1ccc(F)c(Cl)c1` [Example 1020]: the IC50 amounted to 0.13 µM. This lies in the sub-micromolar range.
`CN1CCCC1CCn1cc(CNc2cc(Cl)c3ncc(C#N)c(NC4CCCC4)c3c2)nn1` (stereo not shown) [Example 944]: the IC50 was more than 3 µM.
Molecule `COC(=O)N1CCC(n2cc(CN(C(=O)OC)c3cc(Cl)c4ncc(C#N)c(Nc5ccc(F)c(Cl)c5)c4c3)nn2)CC1` [Example 981] displayed an IC50 of 0.61 µM. This counts as sub-micromolar.
Still for that read-out and setting: as for `CC(C)(C)OC(=O)N1CC=C(c2cncc(CNc3cc(Cl)c4ncc(C#N)c(Nc5ccc(F)c(Cl)c5)c4c3)c2)CC1` [Example 1051], the figure is more than 3 µM; as for `N#Cc1cnc2c(Cl)cc(NCc3cncc(C4=CCNCC4)c3)cc2c1Nc1ccc(F)c(Cl)c1` [Example 1056], 0.88 µM; as for `N#Cc1cnc2c(Cl)cc(NCc3cncc(Br)c3)cc2c1Nc1ccc(F)c(Cl)c1` [Example 1047], 0.47 µM.
`CC(C)N1C2CCC1CC(n1cc(CNc3cc(Cl)c4ncc(C#N)c(Nc5ccc(F)c(Cl)c5)c4c3)nn1)C2` (stereo not shown) [Example 1049] showed an IC50 of 0.42 µM.
